Patent publication US20080317857A1, “V-Atpase Inhibitors of Use in the Treatment of Septic Shock” (Brane Discovery S.r.l., priority 2005, published 2008)
Read-outs that look alike come from different tables or passages of the source.

Tests used:
[1] = tested on: NADPH-oxidase activation (H2O2 release) in PMNs; assay: Respiratory burst (H2O2 assay) in PMNs; format: cell-based, human; details: for inhibition at 25 µM / inhibition at 50 µM / inhibition at 100 µM: Homo sapiens, read-out: Inhibition of H2O2 release induced by PMA in PMNs (% PMA control); for inhibition at 25 µM: [cpd] 25 μM; for inhibition at 50 µM: [cpd] 50 μM; for inhibition at 100 µM: [cpd] 100 μM
Procedure: (§1) NADPH-oxidase activation was measured as induction of H2O2 release (derived from dismutation of O2^−) triggered in PMNs and monocytes by PMA (200 ng/ml). Briefly, PMNs and monocytes were pretreated at 37° C. for 30-60 min with test compound at different concentrations, and stimulated with phorbol 12-myristate 13-acetate (PMA, 200 ng/ml) dissolved in 0.5 ml of a standard reaction mixture. Release of H2O2 was evaluated in real time at time points of 5 min by using a microplate fluorescence reader (Perkin-Elmer). Results are expressed as nmoles of H2O2 released over time by 10^6 cells. Shown are dose-response curves of inhibitory effect on H2O2 release over 60 min.

[2] = tested on: NADPH-oxidase activation (H2O2 release) in Monocytes; assay: Respiratory burst (H2O2 assay) in monocytes; format: cell-based, human; details: for inhibition at 25 µM / inhibition at 50 µM / inhibition at 100 µM: Homo sapiens, Monocyte, read-out: Inhibition of H2O2 release induced by PMA in Monocytes (% PMA control); for inhibition at 25 µM: [cpd] 25 μM; for inhibition at 50 µM: [cpd] 50 μM; for inhibition at 100 µM: [cpd] 100 μM
Procedure: as §1

[3] = tested on: V-ATPase; details: cited from earlier work
[4] = tested on: PMNs; assay: Chemoattractant-induced rapid adhesion of PMNs to fibrinogen (CR3 ligand); format: cell-based; details: Homo sapiens, read-out: Inhibition of Adhesion (%) PMNs (fMLP) (converted); for inhibition at 25 µM: [cpd] 25 μM; for inhibition at 50 µM: [cpd] 50 μM; for inhibition at 100 µM: [cpd] 100 μM
Procedure: (§2) Adhesion was performed on purified integrin ligands and was evaluated as reported in Constantin G. et al., Immunity, 16, 759-769, 2000. Briefly, primary naïve lymphocytes, polymorphonuclear neutrophils (PMNs) or monocytes were isolated form healthy donors. In other experiments, murine autoreactive T cells were obtained from SJL mice immunized with PLP139-151 as described (Piccio L. et al., J. Immunol. 168, 1940-1949, 2002). Cells were resuspended at 4×10^6/ml in PBS, CaCl2, MgCl2 1 mM, 10% FCS, pH 7.2. Adhesion assays were performed on eighteen well glass slides coated overnight at 4° C. with ligands for CR3 (fibrinogen) or LFA-1 (ICAM-1). 20 μl of cell suspension were added to the wells and stimulated at 37° C. with 5 μl of agonists prior to washing, fixation and computer-assisted enumeration of bound cells.
(§3) Integrin activation was measured as induction of rapid adhesion triggered by the classical chemoattractant N-formyl-L-methionyl-L-leucyl-phenylalanine (fMLP) (100 nM) or by the CC chemokine MIP3β (CCL19, 1 μM). PMNs and monocytes were triggered to adhere to fibrinogen (CR3 ligand); naive human lymphocytes or murine encephalitogenic T cells were triggered to adhere to ICAM-1 (LFA-1 ligand). Triggered adhesion was evaluated after 2 min of stimulation under static conditions. The cells were pretreated at 37° C. for 30-60 min with the indicated concentrations of the test compound. Results are expressed as percentage of inhibition over control (=100%) and are the mean of three experiments in the case of human leukocytes. Results are expressed as mean counts and are the mean counts±S.D of three experiments and are the mean of three experiments in the case of murine encephalitogenic lymphocytes.
(§4) Integrin activation was measured as induction of rapid adhesion triggered by the “classical” chemoattractant fMLP (100 nM) or by the CC chemokine MIP3β(CCL19, 1 μM). PMNs were triggered to adhere to fibrinogen (CR3 ligand); lymphocytes were triggered to adhere to ICAM-1 (LFA-1 ligand).

[5] = tested on: Lymphocytes; assay: Chemokine-induced rapid adhesion of lymphocytes to ICAM-1 (LFA-1 ligand); format: cell-based; details: Homo sapiens, Lymphocyte, read-out: Inhibition of Adhesion (%) Lymphocytes (MIP3-β) (converted); for inhibition at 25 µM: [cpd] 25 μM; for inhibition at 50 µM: [cpd] 50 μM; for inhibition at 100 µM: [cpd] 100 μM
Procedure: as §2, §3, §4

[6] = tested on: encephalitogenic lymphocytes; assay: Chemokine-induced adhesion of murine encephalitogenic T cells to ICAM-1; format: cell-based, murine (SJL mice); details: NT control in the same cell
Procedure: as §2, §3
Chemokines trigger rapid arrest of lymphocytes in blood vessels through pertussis toxin-sensitive G protein coupled receptors. […] Autoreactive lymphocytes were then stimulated with 1 μM CCL19 (MIP-3beta) for 3 min.

CCN1C(=O)C=CC1=O [NEM, N-ethylmaleimide]
inhibition at 25 µM ([1]; 0.5 h, 30 min): 100%
inhibition at 50 µM ([1]; 0.5 h, 30 min): 100%
inhibition at 100 µM ([1]; 0.5 h, 30 min): 100%
inhibition at 25 µM ([1]; 40 min, 40 min): 100%
inhibition at 50 µM ([1]; 40 min, 40 min): 100%
inhibition at 100 µM ([1]; 40 min, 40 min): 100%
inhibition at 25 µM ([1]; 50 min, 50 min): 100%
inhibition at 50 µM ([1]; 50 min, 50 min): 100%
inhibition at 100 µM ([1]; 50 min, 50 min): 100%
respiratory burst / NADPH-oxidase activation induced by PMA in PMNs (in words) ([1]; PMA 200 ng/ml): completely blocked
inhibition at 25 µM ([2]; 0.5 h, 30 min): 100%
inhibition at 50 µM ([2]; 0.5 h, 30 min): 100%
inhibition at 100 µM ([2]; 0.5 h, 30 min): 100%
inhibition at 25 µM ([2]; 40 min, 40 min): 100%
inhibition at 50 µM ([2]; 40 min, 40 min): 100%
inhibition at 100 µM ([2]; 40 min, 40 min): 100%
inhibition at 25 µM ([2]; 50 min, 50 min): 100%
inhibition at 50 µM ([2]; 50 min, 50 min): 100%
inhibition at 100 µM ([2]; 50 min, 50 min): 100%
respiratory burst / NADPH-oxidase activation induced by PMA in monocytes (in words) ([2]; PMA 200 ng/ml): completely blocked
concentrations generally active in inhibiting V-ATPase [3]: > 25 µM

C/C=C/[C@H]1O[C@@](O)([C@@H](C)[C@H](O)[C@H](C)[C@H]2OC(=O)/C(OC)=C/C(C)=C/[C@@H](C)[C@@H](O)[C@@H](CC)[C@@H](O)[C@H](C)C/C(C)=C/C=C/[C@@H]2OC)C[C@@H](O[C@H]2C[C@@H](O)[C@H](OC(N)=O)[C@@H](C)O2)[C@@H]1C [Concanamycin A1, Concanamycin A]
inhibition of the release of oxygen radicals in PMNs ([1]; 10 nM concentration): 58%
Inhibition of H2O2 release induced by PMA in PMNs (% PMA control) ([1]; [cpd] 0.0005 μM, 30 min): 33.4%
Inhibition of H2O2 release induced by PMA in PMNs (% PMA control) ([1]; [cpd] 0.0005 μM, 40 min): 35.2%
Inhibition of H2O2 release induced by PMA in PMNs (% PMA control) ([1]; [cpd] 0.0005 μM, 50 min): 38.9%
Inhibition of H2O2 release induced by PMA in PMNs (% PMA control) ([1]; [cpd] 0.001 μM, 30 min): 36.2%
Inhibition of H2O2 release induced by PMA in PMNs (% PMA control) ([1]; [cpd] 0.001 μM, 40 min): 45.0%
Inhibition of H2O2 release induced by PMA in PMNs (% PMA control) ([1]; [cpd] 0.001 μM, 50 min): 56.4%
Inhibition of H2O2 release induced by PMA in PMNs (% PMA control) ([1]; [cpd] 0.010 μM, 30 min): 50.2%
Inhibition of H2O2 release induced by PMA in PMNs (% PMA control) ([1]; [cpd] 0.010 μM, 40 min): 58.3%
Inhibition of H2O2 release induced by PMA in PMNs (% PMA control) ([1]; [cpd] 0.010 μM, 50 min): 58.3%
inhibition of the release of oxygen radicals in monocytes ([2]; 10 nM concentration): 50%
Inhibition of H2O2 release induced by PMA in Monocytes (% PMA control) ([2]; [cpd] 0.0005 μM, 30 min): 17.0%
Inhibition of H2O2 release induced by PMA in Monocytes (% PMA control) ([2]; [cpd] 0.0005 μM, 40 min): 26.3%
Inhibition of H2O2 release induced by PMA in Monocytes (% PMA control) ([2]; [cpd] 0.0005 μM, 50 min): 33.3%
Inhibition of H2O2 release induced by PMA in Monocytes (% PMA control) ([2]; [cpd] 0.001 μM, 30 min): 35.7%
Inhibition of H2O2 release induced by PMA in Monocytes (% PMA control) ([2]; [cpd] 0.001 μM, 40 min): 43.4%
Inhibition of H2O2 release induced by PMA in Monocytes (% PMA control) ([2]; [cpd] 0.001 μM, 50 min): 50.2%
inhibition of V-ATPase (in words) ([3]; literature): very potent and highly specific inhibitors

CCOC(=O)c1[nH]c2cc(OC)c(OC)cc2c1-c1ccncc1 [Example 81]
inhibition at 25 µM [4]: 14.4%
inhibition at 50 µM [4]: 0.8%
inhibition at 100 µM [4]: 0%
inhibition at 25 µM [5]: 4.5%
inhibition at 50 µM [5]: 12.7%
inhibition at 100 µM [5]: 34.9%
Chemokine-induced Adhesion in encephalitogenic lymphocytes, Mean counts ± S.D., in absence of MIP3-β stimulation ([6]; [cpd] 5 μM): 56.2 ± 11.1
Chemokine-induced Adhesion in encephalitogenic lymphocytes, Mean counts ± S.D., in presence of MIP3-β stimulation ([6]; [cpd] 5 μM): 84.5 ± 8.8
Chemokine-induced Adhesion in encephalitogenic lymphocytes, Mean counts ± S.D., in absence of MIP3-β stimulation ([6]; [cpd] 50 μM): 41.3 ± 3.6
Chemokine-induced Adhesion in encephalitogenic lymphocytes, Mean counts ± S.D., in presence of MIP3-β stimulation ([6]; [cpd] 50 μM): 99.2 ± 5.0

COCCn1c(C(=O)OC)c(-c2ccc(OC)cc2)c2cc(OC)c(OC)cc21 [Example 39]
inhibition at 25 µM [4]: 33.8%
inhibition at 50 µM [4]: 39.1%
inhibition at 100 µM [4]: 44.8%
inhibition at 25 µM [5]: 8.2%
inhibition at 50 µM [5]: 26.4%
inhibition at 100 µM [5]: 41.4%
Chemokine-induced Adhesion in encephalitogenic lymphocytes, Mean counts ± S.D., in absence of MIP3-β stimulation ([6]; [cpd] 5 μM): 72.9 ± 8.8
Chemokine-induced Adhesion in encephalitogenic lymphocytes, Mean counts ± S.D., in presence of MIP3-β stimulation ([6]; [cpd] 5 μM): 118.2 ± 10.0
Chemokine-induced Adhesion in encephalitogenic lymphocytes, Mean counts ± S.D., in absence of MIP3-β stimulation ([6]; [cpd] 50 μM): 44.8 ± 1.9
Chemokine-induced Adhesion in encephalitogenic lymphocytes, Mean counts ± S.D., in presence of MIP3-β stimulation ([6]; [cpd] 50 μM): 104.4 ± 5.0
